What was measured:
[1] = test system: Rat; assay: concentration in adipose after dosing; conditions: 144 h; dosed: Tamoxifen citrate; 100 ug/mL; oral; Female; F344
[2] = test system: Rat; assay: concentration in liver after dosing; conditions: 144 h; dosed: Tamoxifen citrate; 300 ug/mL; oral; Female; F344
[3] = test system: Rat; assay: concentration in adipose after dosing; conditions: 144 h; dosed: Tamoxifen; 300 ug/mL; oral; Female; F344
[4] = test system: Rat; assay: concentration in liver after dosing; conditions: 144 h; dosed: Tamoxifen citrate; 100 ug/mL; oral; Female; F344
[5] = test system: Rat; assay: concentration in liver after dosing; conditions: 144 h; dosed: Tamoxifen; 300 ug/mL; oral; Female; F344
[6] = test system: Rat; assay: concentration in liver after dosing; conditions: 144 h; dosed: Tamoxifen; 300 ug/mL; oral; Female; F344; remark: listed apart in the source
[7] = test system: Rat; assay: concentration in adipose after dosing; conditions: 72 h; dosed: Tamoxifen citrate; 100 ug/mL; oral; Female; F344
[8] = test system: Rat; assay: concentration in liver after dosing; conditions: 144 h; dosed: Tamoxifen citrate; 100 ug/mL; oral; Female; F344; remark: listed apart in the source
[9] = test system: Rat; assay: concentration in adipose after dosing; conditions: 72 h; dosed: Tamoxifen; 300 ug/mL; oral; Female; F344
[10] = test system: Rat; assay: concentration in liver after dosing; conditions: 144 h; dosed: Tamoxifen; 300 ug/mL; oral; Female; F344; remark: listed apart in the source
[11] = test system: Rat; assay: concentration in liver after dosing; conditions: 72 h; dosed: Tamoxifen citrate; 300 ug/mL; oral; Female; F344
[12] = test system: Rat; assay: concentration in adipose after dosing; conditions: 144 h; dosed: Tamoxifen; 300 ug/mL; oral; Female; F344; remark: listed apart in the source
[13] = test system: Rat; assay: concentration in liver after dosing; conditions: 72 h; dosed: Tamoxifen citrate; 300 ug/mL; oral; Female; F344; remark: listed apart in the source
[14] = test system: Rat; assay: concentration in plasma after dosing; conditions: dosed: Tamoxifen citrate, 300 ug/mL, oral, Female, F344
[15] = test system: Rat; assay: concentration in adipose after dosing; conditions: 144 h; dosed: Tamoxifen citrate; 300 ug/mL; oral; Female; F344
[16] = test system: Rat; assay: concentration in liver after dosing; conditions: 144 h; dosed: Tamoxifen citrate; 300 ug/mL; oral; Female; F344; remark: listed apart in the source
[17] = test system: Rat; assay: concentration in adipose after dosing; conditions: oral, Female, F344
[18] = test system: Rat; assay: concentration in liver after dosing; conditions: 144 h; dosed: Tamoxifen citrate; 300 ug/mL; oral; Female; F344; remark: listed apart in the source
[19] = test system: Rat; assay: concentration in plasma after dosing; conditions: dosed: Tamoxifen citrate, 300 ug/mL, oral, Female, F344; remark: listed apart in the source
[20] = test system: Rat; assay: concentration in liver after dosing; conditions: oral, Female, F344
[21] = test system: Rat; assay: concentration in adipose after dosing; conditions: 144 h; dosed: Tamoxifen citrate; 300 ug/mL; oral; Female; F344; remark: listed apart in the source
[22] = test system: Rat; assay: concentration in adipose after dosing; conditions: 144 h; dosed: Tamoxifen citrate; 300 ug/mL; oral; Female; F344; remark: listed apart in the source
[23] = test system: Rat; assay: concentration in adipose after dosing; conditions: 72 h; dosed: Tamoxifen citrate; 100 ug/mL; oral; Female; F344; remark: listed apart in the source
[24] = test system: Rat; assay: concentration in liver after dosing; conditions: 144 h; dosed: Tamoxifen citrate; 300 ug/mL; oral; Female; F344; remark: listed apart in the source
[25] = test system: Rat; assay: concentration in adipose after dosing; conditions: 72 h; dosed: Tamoxifen; 300 ug/mL; oral; Female; F344; remark: listed apart in the source
[26] = test system: Rat; assay: concentration in adipose after dosing; conditions: 144 h; dosed: Tamoxifen; 300 ug/mL; oral; Female; F344; remark: listed apart in the source
[27] = test system: Rat; assay: concentration in plasma after dosing; conditions: dosed: Tamoxifen, 300 ug/mL, oral, Female, F344
[28] = test system: Rat; assay: concentration in adipose after dosing; conditions: 72 h; dosed: Tamoxifen citrate; 300 ug/mL; oral; Female; F344
[29] = test system: Rat; assay: concentration in adipose after dosing; conditions: 72 h; dosed: Tamoxifen citrate; 300 ug/mL; oral; Female; F344; remark: listed apart in the source
[30] = test system: Rat; assay: concentration in liver after dosing; conditions: 72 h; dosed: Tamoxifen citrate; 100 ug/mL; oral; Female; F344
[31] = test system: Rat; assay: concentration in adipose after dosing; conditions: 144 h; dosed: Tamoxifen; 300 ug/mL; oral; Female; F344; remark: listed apart in the source
[32] = test system: Rat; assay: concentration in adipose after dosing; conditions: 144 h; dosed: Tamoxifen; 300 ug/mL; oral; Female; F344; remark: listed apart in the source
[33] = test system: Rat; assay: concentration in liver after dosing; conditions: 144 h; dosed: Tamoxifen citrate; 300 ug/mL; oral; Female; F344; remark: listed apart in the source
[34] = test system: Rat; assay: concentration in liver after dosing; conditions: 144 h; dosed: Tamoxifen; 300 ug/mL; oral; Female; F344; remark: listed apart in the source
[35] = test system: Rat; assay: concentration in liver after dosing; conditions: 72 h; dosed: Tamoxifen citrate; 100 ug/mL; oral; Female; F344; remark: listed apart in the source
[36] = test system: Rat; assay: concentration in plasma after dosing; conditions: 300 ug/mL, oral, Female, F344
[37] = test system: Rat; assay: concentration in adipose after dosing; conditions: 144 h; dosed: Tamoxifen citrate; 300 ug/mL; oral; Female; F344; remark: listed apart in the source
[38] = test system: Rat; assay: concentration in liver after dosing; conditions: 144 h; dosed: Tamoxifen; 300 ug/mL; oral; Female; F344; remark: listed apart in the source
[39] = test system: Rat; assay: concentration in adipose after dosing; conditions: 144 h; dosed: Tamoxifen citrate; 300 ug/mL; oral; Female; F344; remark: listed apart in the source
[40] = test system: Rat; assay: concentration in plasma after dosing; conditions: dosed: Tamoxifen citrate, 300 ug/mL, oral, Female, F344; remark: listed apart in the source
[41] = test system: Rat; assay: concentration in liver after dosing; conditions: 72 h; dosed: Tamoxifen; 300 ug/mL; oral; Female; F344
[42] = test system: Rat; assay: concentration in plasma after dosing; conditions: dosed: Tamoxifen, 300 ug/mL, oral, Female, F344; remark: listed apart in the source
[43] = test system: Rat; assay: concentration in liver after dosing; conditions: 72 h; dosed: Tamoxifen; 300 ug/mL; oral; Female; F344; remark: listed apart in the source
[44] = test system: Rat; assay: concentration in plasma after dosing; conditions: dosed: Tamoxifen, 300 ug/mL, oral, Female, F344; remark: listed apart in the source

CC/C(=C(\c1ccccc1)c1ccc(OCCN(C)C)cc1)c1ccccc1 [Tamoxifen]
Conditions | concentration in adipose [ng/mL] | concentration in liver [ng/g]
[1] | 10.4 | –
[2] | – | 25.3
[3] | 40.1 | –
[4] | – | 16.3
[5] | – | 37.2
[6] | – | 22.8
[7] | 5.58 | –
[8] | – | 13.9
[9] | 27.4 | –
[10] | – | 239
[11] | – | 21.1
[12] | 151 | –
[13] | – | 30.5
[15] | 151 | –
[16] | – | 22.8
[18] | – | 58.4
[21] | 44.5 | –
[22] | 55.7 | –
[23] | 14.8 | –
[24] | – | 239
[25] | 31.2 | –
[26] | 55.7 | –
[28] | 27.4 | –
[29] | 31.2 | –
[30] | – | 13
[31] | 30.4 | –
[32] | 44.5 | –
[33] | – | 37.2
[34] | – | 58.4
[35] | – | 5.85
[37] | 40.1 | –
[38] | – | 25.3
[39] | 30.4 | –
[41] | – | 30.5
[43] | – | 21.1

concentration in plasma [ng/mL]
Conditions | [14] | [19] | [27] | [40] | [42] | [44]
0.25 h | 21.9 | 11.9 | 15.4 | 15.4 | 21.9 | 11.9
0.5 h | 10.2 | 8.96 | 12.2 | 12.2 | 10.2 | 8.96
1 h | – | 7.35 | 9.33 | 9.33 | – | 7.35
2 h | 6.23 | 5.81 | 8.41 | 8.41 | 6.23 | 5.81
4 h | 4.51 | – | 4.44 | 4.44 | 4.51 | –
12 h | 2.66 | – | – | – | 2.66 | –

Conditions | concentration in adipose, [17] [ng/mL] | concentration in liver, [20] [ng/g]
72 h, dosed: Tamoxifen citrate, 100 ug/mL | 7.52 | 7.61
72 h, dosed: Tamoxifen citrate, 300 ug/mL | 33.6 | 39.5
72 h, dosed: Tamoxifen, 300 ug/mL | 33.6 | 39.5
144 h, dosed: Tamoxifen citrate, 100 ug/mL | 9.5 | 13.4
144 h, dosed: Tamoxifen citrate, 300 ug/mL | 31.5 | 48.3
144 h, dosed: Tamoxifen, 300 ug/mL | 31.5 | 48.3

concentration in plasma [ng/mL], [36]
Conditions | 0 h | 0.25 h | 0.5 h | 1 h | 2 h | 4 h | 8 h | 16 h
dosed: Tamoxifen | 2.13 | 3.18 | 2.95 | 2.9 | 4.38 | 4.12 | 4.6 | 2.42
dosed: Tamoxifen citrate | 2.13 | 3.18 | 2.95 | 2.9 | 4.38 | 4.12 | 4.6 | 2.42

Source: EPA's CvTdb concentration-time database
